Reference: patent US20040034078A1 (Agouron Pharmaceuticals, Inc., priority 2002, published 2004)

Target: purified PARP protein (Homo sapiens, UniProt P09874)
Test: PARP Enzyme Inhibition Assay
Format: biochemical
Conditions: [32P]NAD+ incorporation, 500 μM NAD+, 25° C.; competitive inhibition fit; read-out: Inhibition Constant Ki
Procedure: The PARP enzyme-inhibiting activities of test compounds were assayed as described by Simonin et al. (J. Biol. Chem. (1993), 268:8529-8535) and Marsischky et al. (J. Biol. Chem. (1995), 270:3247-3254) with minor modifications as follows. Samples (50 μL) containing 20 nM purified PARP protein, 10 μg/mL DNAse I-activated calf thymus DNA (sigma), 500 μM NAD^+, 0.5 μCi [^32P]NAD^+, 2% DMSO, and various concentrations of test compounds were incubated in sample buffer (50 mM Tris pH 8.0, 10 mM MgCl2, 1 mM tris(carboxyethyl)phosphine HCl) at 25° C. for 5 minutes. Under these conditions, the reaction rate was linear for times up to 10 minutes. The reaction was stopped by the addition of an equal volume of ice-cold 40% trichloroacetic acid to the samples, which were then incubated on ice for 15 minutes. The samples were then transferred to a Bio-Dot microfiltration apparatus (BioRad), filtered through Whatman GF/C glass-fiber filter paper, washed 3 times with 150 μL of wash buffer (5% trichloroacetic acid, 1% inorganic pyrophosphate), and dried. [^32P]ADP-Ribose incorporation into the acid-insoluble material was quantitated using a PhosphorImager (Molecular Dynamics) and ImageQuant software. Inhibition constants (Ki) were calculated by non-linear regression analyses using the velocity equation for competitive inhibition (Segel, Enzyme Kinetics: Behavior and Analysis of Rapid Equilibrium and Steady-State Enzyme Systems, John Wiley & Sons, Inc., New York (1975), 100-125). In the case of tight-binding inhibitors, 5 nM enzyme was used and the reaction was incubated at 25° C. for 25 minutes. Ki values for tight-binding inhibitors were calculated using the equation described by Sculley et al. (Biochim. Biophys. Acta (11986), 874:44-53).

Chain of purified PARP protein (P09874 whole entry): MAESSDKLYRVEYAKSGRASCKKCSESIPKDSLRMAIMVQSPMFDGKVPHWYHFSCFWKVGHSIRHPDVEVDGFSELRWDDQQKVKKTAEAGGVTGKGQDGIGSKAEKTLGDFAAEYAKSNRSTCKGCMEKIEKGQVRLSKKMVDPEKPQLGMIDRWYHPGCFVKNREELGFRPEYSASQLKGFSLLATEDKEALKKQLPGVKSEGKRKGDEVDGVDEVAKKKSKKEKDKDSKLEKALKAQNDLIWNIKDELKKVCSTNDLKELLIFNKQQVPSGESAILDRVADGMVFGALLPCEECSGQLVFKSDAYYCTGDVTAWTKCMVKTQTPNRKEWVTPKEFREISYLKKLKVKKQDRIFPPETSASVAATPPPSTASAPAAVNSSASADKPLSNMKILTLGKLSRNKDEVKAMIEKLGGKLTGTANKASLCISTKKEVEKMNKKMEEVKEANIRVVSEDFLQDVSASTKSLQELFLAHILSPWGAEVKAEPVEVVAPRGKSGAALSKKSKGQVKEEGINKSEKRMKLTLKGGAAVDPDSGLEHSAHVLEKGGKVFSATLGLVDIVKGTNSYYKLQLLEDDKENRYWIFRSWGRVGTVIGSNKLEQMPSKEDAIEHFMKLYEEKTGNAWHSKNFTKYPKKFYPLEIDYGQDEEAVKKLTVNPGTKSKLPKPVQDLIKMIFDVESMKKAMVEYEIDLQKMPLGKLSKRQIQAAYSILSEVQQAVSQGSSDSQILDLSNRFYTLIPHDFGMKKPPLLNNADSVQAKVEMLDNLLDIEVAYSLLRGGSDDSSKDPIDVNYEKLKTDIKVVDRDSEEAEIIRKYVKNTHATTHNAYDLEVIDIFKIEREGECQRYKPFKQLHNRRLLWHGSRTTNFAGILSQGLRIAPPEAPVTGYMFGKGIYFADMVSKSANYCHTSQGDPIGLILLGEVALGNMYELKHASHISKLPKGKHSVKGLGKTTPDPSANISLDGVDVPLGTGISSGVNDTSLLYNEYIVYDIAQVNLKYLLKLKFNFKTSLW

Compared with `NC(=O)c1cccc2[nH]c(NCCc3cnc[nH]3)nc12` [Compound 61, 2-[2-(3H-Imidazol-4-yl)-ethylamino]-1H-benzoimidazole-4-carboxylic Acid Amide], `NC(=O)c1cccc2[nH]c(NCc3ccccc3)nc12` [Compound 58, 2-Benzylamino-1H-benzoimidazole-4-carboxylic Acid Amide] is 5.5-fold higher in Ki: 12 ± 1 nM for the first, 66 ± 8 nM for the second. The first binds more tightly here.

Going from `NC(=O)c1cccc2[nH]c(S(=O)(=O)Cc3ccccc3)nc12` [Compound 41, 2-Phenylmethansulfonyl-1H-benzimidazole-4-carboxylic Acid Amide] to `NC(=O)c1cccc2[nH]c(SCc3ccccc3)nc12` [Compound 40, 2-Benzylsulfanyl-1H-benzimidazole-4-carboxylic Acid Amide], the Ki falls from 800 nM to 70 ± 15 nM (11-fold).

`COC(=O)Nc1ccc(SCc2nc3c(C(N)=O)cccc3[nH]2)cc1` [Compound 26] and `NC(=O)c1cccc2[nH]c(CSc3ccc(NC(=O)OCc4ccccc4)cc3)nc12` [Compound 25] are within error of each other in Ki: 38 ± 1 nM for the first, 39 nM for the second.

First: CN(Cc1nc2c(C(N)=O)cccc2[nH]1)c1ccccc1 [Compound 20, 2-[(Methyl-phenyl-amino)-methyl]-1H-benzimidazole-4-carboxylic Acid Amide]
Second: CN(Cc1nc2c(C(N)=O)cccc2[nH]1)Cc1ccccc1O [Compound 15]
The Ki of the first is 3.2-fold lower: 14 ± 3 nM for the first, 45 ± 3 nM for the second.

First: CNCCN(C)Cc1nc2c(C(N)=O)cccc2[nH]1 [Compound 23, 2-{[Methyl-(2-methylamino-ethyl)-amino]-methyl}-1H-benzimidazole-4-carboxylic Acid Amide]
Second: CN(C)c1nc2c(C(N)=O)cccc2[nH]1 [Compound 57, 2-Dimethylamino-1H-benzoimidazole-4-carboxylic Acid Amide]
The Ki of the first is 3.1-fold lower: 14 nM for the first, 44 ± 4 nM for the second. The first binds more tightly here.

Going from `CN(C)c1ccc(SCc2nc3c(C(N)=O)cccc3[nH]2)cc1` [Compound 12, 2-(4-Dimethylamino-phenylsulfanylmethyl)-1H-benzimidazole-4-carboxylic Acid Amide] to `NC(=O)c1cccc2[nH]c(CSc3ccc([N+](=O)[O-])cc3)nc12` [Compound 3, 2-(4-Nitro-phenylsulfanylmethyl)-1H-benzimidazole-4-carboxylic Acid Amide], the Ki falls from 91 ± 3 nM to 8 nM (11-fold).

Compared with `CCCCCCCS(=O)(=O)Cc1nc2c(C(N)=O)cccc2[nH]1` [Compound 31, 2-(Heptane-1-sulfonylmethyl)-1H-benzimidazole-4-carboxylic Acid Amide], `CS(=O)(=O)c1ccc(S(=O)(=O)Cc2nc3c(C(N)=O)cccc3[nH]2)cc1` [Compound 35, 2-(4-Methanesulfonyl-benzenesulfonylmethyl)-1H-benzimidazole-4-carboxylic Acid Amide] is 12-fold lower in Ki: 61 ± 10 nM for the first, 5 ± 1 nM for the second. The second binds more tightly here.

Compared with `CN(CCc1ccccc1)c1nc2c(C(N)=O)cccc2[nH]1` [Compound 54, 2-(Methyl-phenethyl-amino)-1H-benzoimidazole-4-carboxylic Acid Amide], `COc1ccc(CSc2nc3c(C(N)=O)cccc3[nH]2)cc1` [Compound 43, 2-(4-Methoxy-benzylsulfanyl)-1H-benzimidazole-4-carboxylic Acid Amide] is 5.4-fold lower in Ki: 35 ± 6 nM for the first, 6.5 ± 1.5 nM for the second.

`NC(=O)c1cccc2[nH]c(CSCCN3CCc4ccccc4C3)nc12` [Compound 46, 2-[2-(3,4-Dihydro-1H-isoquinolin-2-yl)-ethylsulfanylmethyl]-1H-benzoimidazole-4-carboxylic Acid Amide] and `NC(=O)c1cccc2[nH]c(CSCCN3CCOCC3)nc12` [Compound 45, 2-(2-Morpholin-4-yl-ethylsulfanylmethyl)-1H-benzimidazole-4-carboxylic Acid Amide] are within 1.5-fold of each other in Ki: 33 ± 3 nM for the first, 48 ± 1 nM for the second.

`NC(=O)Nc1ccc(S(=O)(=O)Cc2nc3c(C(N)=O)cccc3[nH]2)cc1` [Compound 39, 2-(4-Ureido-benzenesulfonylmethyl)-1H-benzoimidazole-4-carboxylic Acid Amide] and `NC(=O)c1cccc2[nH]c(CS(=O)(=O)c3ccc(N4C(=O)CNC4=O)cc3)nc12` [Compound 51, 2-[4-(2,5-Dioxo-imidazolidin-1-yl)-benzenesulfonylmethyl]-1H-benzoimidazole-4-carboxylic Acid Amide] are within error of each other in Ki: 29.5 ± 2.5 nM for the first, 24 ± 3 nM for the second.
